US20240317721A1, “PYRAZOLYL DERIVATIVES AS INHIBITORS OF THE KRAS MUTANT PROTEIN” (NOVARTIS AG, priority 2021, published 2024)

Biological target: KRasG12C (M1-K169, biotinylated on the N-terminus) (Homo sapiens (Human), UniProt P01116, G12C)
Assay: Covalent competition assay: scintillation proximity assay (SPA) quantifying covalent modification of KRASG12C
Format: binding
Details: competition with radiolabeled covalent probe (Compound B/Compound A), 2 hours incubation, 10 nM KRasG12C
Experimental: Cells were harvested by centrifugation and frozen at −80° C. until further processing. […] The cells were lysed by 4 passages through an Avestin Emulsiflex at about 20000 psi and insoluble debris removed by centrifugation and filtered through a 0.45 µm Durapore membrane (Millipore). […] Eluted protein fractions were analyzed by Novex NuPage 4-12% PAGE. […] The protein in the flow through was subjected to a final polishing step on a HiLoad 16/60 Superdex 200 prep grade size-exclusion column pre-equilibrated with SEC-buffer (20 mM HEPES pH 7.4, 150 mM NaCl, 5 mM MgCl2, 1 µM GDP). Positive fractions were determined by PAGE (Novex NuPage 4-12% BisTris) analysis.
A scintillation proximity assay (SPA) was used to determine the potency of the compounds.
This assay measures the ability of the test compound to compete with the radiolabeled covalent probe for binding to and covalently modify KRASG12C.
(see above for synthesis of Compound A and Compound B). A serial dilution of the compounds to be tested is mixed with a fixed concentration of the radiolabeled covalent probe before incubation with KRASG12C:GDP as described below. KRASG12C can either be bound by the radiolabeled covalent probe (Compound B), resulting in light being emitted from the beads, or bound by covalent test compound preventing signal generation.
A 1/20 isotopic dilution of labeled (Compound B) and non-labeled covalent (Compound A) probe was prepared and added to all wells on the plate. The reaction was started by addition of KRasG12C (M1-K169, biotinylated on the N-terminus) to the compounds and incubated for 2 hours with continuous agitation allowing for full modification of KRasG12C with probe or test compounds. Final concentrations in an assay volume of 40 μL were 10 nM KRasG12C, 25 nM radio-ligand and 475 nM unlabelled ligand. The assay buffer contained 20 mM Tris-HCl pH 7.5 (Invitrogen), 150 mM NaCl (Sigma Aldrich), 0.1 mM MgCl2 (Sigma Aldrich), and 0.01% Tween-20 (Sigma Aldrich). Following addition of 50 μL of a 400 μg/mL suspension of streptavidin-coated YSi beads (Perkin Elmer), plates were incubated for a further 30 min with continuous agitation before reading the plates on a scintillation counter (Topcount NXT 384 (Packard).
Evaluation was carried out using assay data analysis software (such as the standard Novartis in-house Helios software application, Novartis Institutes for BioMedical Research, unpublished) using the methods described in Formenko et al., Robust Regression for high-throughput screening, Computer Methods and Programs in Biomedicine, 2006, 82, 31-37. Following normalization of activity values for the wells to % inhibition (% inhibition=[(high control−sample)/(high control−low control)]×100), IC50 fitting was carried out from the duplicate determinations present on each plate according to Formenko et al., 2006.
Evaluation can also be carried out using commercially available software which is designed to derive IC50 values using 4-parameter fits (e.g. GraphPad Prism, XL fit).

| SMILES | IC50 [nM] |
| --- | --- |
| C=CC(=O)N1CC2(CC(n3nc(N4CCN(C(C)=O)CC4(C)C)c(-c4c(C)c(C)cc5[nH]ncc45)c3C)C2)C1 (single isomer, unassigned) [Example 1a, 1-(6-(3-(4-Acetyl-2,2-dimethylpiperazin-1-yl)-4-(5,6-dimethyl-1H-indazol-4-yl)-5-methyl-1H-pyrazol-1-yl)-2-azaspiro[3.3]heptan-2-yl)prop-2-en-1-one] | 86 |
| C=CC(=O)N1CC2(CC(n3nc(N4CCN(C(C)=O)CC4(C)C)c(-c4c(C)c(C)cc5[nH]ncc45)c3C)C2)C1 (single isomer, unassigned) [Example 1b, 1-(6-(3-(4-Acetyl-2,2-dimethylpiperazin-1-yl)-4-(5,6-dimethyl-1H-indazol-4-yl)-5-methyl-1H-pyrazol-1-yl)-2-azaspiro[3.3]heptan-2-yl)prop-2-en-1-one] | 10700 |
| C=CC(=O)N1CC2(CC(n3nc(N4CCN(C(C)=O)CC4)c(-c4c(C)c(C)cc5[nH]ncc45)c3C)C2)C1 (single isomer, unassigned) [Example 2a, 1-(6-(3-(4-acetylpiperazin-1-yl)-4-(5,6-dimethyl-1H-indazol-4-yl)-5-methyl-1H-pyrazol-1-yl)-2-azaspiro[3.3]heptan-2-yl)prop-2-en-1-one] | > 50000 |
| C=CC(=O)N1CC2(CC(n3nc(N4CCN(C(C)=O)CC4)c(-c4c(C)c(C)cc5[nH]ncc45)c3C)C2)C1 (single isomer, unassigned) [Example 2b, 1-(6-(3-(4-acetylpiperazin-1-yl)-4-(5,6-dimethyl-1H-indazol-4-yl)-5-methyl-1H-pyrazol-1-yl)-2-azaspiro[3.3]heptan-2-yl)prop-2-en-1-one] | 3200 |
| C=CC(=O)N1CC2(CC(n3nc(N4CCn5nccc5C4)c(-c4c(Cl)c(C)cc5[nH]ncc45)c3C)C2)C1 (single isomer, unassigned) [Example 10a, 1-(6-(4-(5-Chloro-6-methyl-1H-indazol-4-yl)-3-(6,7-dihydropyrazolo[1,5-a]pyrazin-5(4H)-yl)-5-methyl-1H-pyrazol-1-yl)-2-azaspiro[3.3]heptan-2-yl)prop-2-en-1-one] | 50000 |
| C=CC(=O)N1CC2(CC(n3nc(N4CCn5nccc5C4)c(-c4c(Cl)c(C)cc5[nH]ncc45)c3C)C2)C1 (single isomer, unassigned) [Example 10b, 1-(6-(4-(5-Chloro-6-methyl-1H-indazol-4-yl)-3-(6,7-dihydropyrazolo[1,5-a]pyrazin-5(4H)-yl)-5-methyl-1H-pyrazol-1-yl)-2-azaspiro[3.3]heptan-2-yl)prop-2-en-1-one] | 105 |
| C=CC(=O)N1CC2(CC(n3nc(N4CCc5c(cnn5C)C4)c(-c4c(Cl)c(C)cc5[nH]ncc45)c3C)C2)C1 (single isomer, unassigned) [Example 11a, 1-(6-(4-(5-chloro-6-methyl-1H-indazol-4-yl)-5-methyl-3-(1-methyl-1,4,6,7-tetrahydro-5H-pyrazolo[4,3-c]pyridin-5-yl)-1H-pyrazol-1-yl)-2-azaspiro[3.3]heptan-2-yl)prop-2-en-1-one] | > 50000 |
| C=CC(=O)N1CC2(CC(n3nc(N4CCc5c(cnn5C)C4)c(-c4c(Cl)c(C)cc5[nH]ncc45)c3C)C2)C1 (single isomer, unassigned) [Example 11b, 1-(6-(4-(5-chloro-6-methyl-1H-indazol-4-yl)-5-methyl-3-(1-methyl-1,4,6,7-tetrahydro-5H-pyrazolo[4,3-c]pyridin-5-yl)-1H-pyrazol-1-yl)-2-azaspiro[3.3]heptan-2-yl)prop-2-en-1-one] | 120 |
| C=CC(=O)N1CC2(CC(n3nc(N4[C@H](C)CN(C(C)=O)C[C@@H]4C)c(-c4c(Cl)c(C)cc5[nH]ncc45)c3C)C2)C1 (single isomer, unassigned) [Example 13a] | > 50000 |
| C=CC(=O)N1CC2(CC(n3nc(N4[C@H](C)CN(C(C)=O)C[C@@H]4C)c(-c4c(Cl)c(C)cc5[nH]ncc45)c3C)C2)C1 (single isomer, unassigned) [Example 13b] | 2100 |
| C=CC(=O)N1CC2(CC(n3nc(N4CCc5cnn(C)c5C4)c(-c4c(Cl)c(C)cc5[nH]ncc45)c3C)C2)C1 (single isomer, unassigned) [Example 14a, 1-(6-(4-(5-chloro-6-methyl-1H-indazol-4-yl)-5-methyl-3-(1-methyl-1,4,5,7-tetrahydro-6H-pyrazolo[3,4-c]pyridin-6-yl)-1H-pyrazol-1-yl)-2-azaspiro[3.3]heptan-2-yl)prop-2-en-1-one] | > 50000 |
| C=CC(=O)N1CC2(CC(n3nc(N4CCc5cnn(C)c5C4)c(-c4c(Cl)c(C)cc5[nH]ncc45)c3C)C2)C1 (single isomer, unassigned) [Example 14b, 1-(6-(4-(5-chloro-6-methyl-1H-indazol-4-yl)-5-methyl-3-(1-methyl-1,4,5,7-tetrahydro-6H-pyrazolo[3,4-c]pyridin-6-yl)-1H-pyrazol-1-yl)-2-azaspiro[3.3]heptan-2-yl)prop-2-en-1-one] | 364 |
| C=CC(=O)N1CC2(CC(n3nc(N4CCc5ncncc5C4)c(-c4c(Cl)c(C)cc5[nH]ncc45)c3C)C2)C1 (single isomer, unassigned) [Example 15a, 1-(6-(4-(5-chloro-6-methyl-1H-indazol-4-yl)-3-(7,8-dihydropyrido[4,3-d]pyrimidin-6(5H)-yl)-5-methyl-1H-pyrazol-1-yl)-2-azaspiro[3.3]heptan-2-yl)prop-2-en-1-one] | 18000 |
| C=CC(=O)N1CC2(CC(n3nc(N4CCc5ncncc5C4)c(-c4c(Cl)c(C)cc5[nH]ncc45)c3C)C2)C1 (single isomer, unassigned) [Example 15b, 1-(6-(4-(5-chloro-6-methyl-1H-indazol-4-yl)-3-(7,8-dihydropyrido[4,3-d]pyrimidin-6(5H)-yl)-5-methyl-1H-pyrazol-1-yl)-2-azaspiro[3.3]heptan-2-yl)prop-2-en-1-one] | 305 |
| C=CC(=O)N1CC2(CC(n3nc(N4CCN(C(C)=O)CC4(C)C)c(-c4c(Cl)c(C)cc5[nH]ncc45)c3C)C2)C1 (single isomer, unassigned) [Example 18a, 1-(6-(3-(4-acetyl-2,2-dimethylpiperazin-1-yl)-4-(5-chloro-6-methyl-1H-indazol-4-yl)-5-methyl-1H-pyrazol-1-yl)-2-azaspiro[3.3]heptan-2-yl)prop-2-en-1-one] | 6100 |
| C=CC(=O)N1CC2(CC(n3nc(N4CCN(C(C)=O)CC4(C)C)c(-c4c(Cl)c(C)cc5[nH]ncc45)c3C)C2)C1 (single isomer, unassigned) [Example 18b, 1-(6-(3-(4-acetyl-2,2-dimethylpiperazin-1-yl)-4-(5-chloro-6-methyl-1H-indazol-4-yl)-5-methyl-1H-pyrazol-1-yl)-2-azaspiro[3.3]heptan-2-yl)prop-2-en-1-one] | 31 |
| C=CC(=O)N1CC2(CC(n3nc(N4CCn5ccnc5C4)c(-c4c(Cl)c(C)cc5[nH]ncc45)c3C)C2)C1 (single isomer, unassigned) [Example 19a, 1-(6-(4-(5-chloro-6-methyl-1H-indazol-4-yl)-3-(5,6-dihydroimidazo[1,2-a]pyrazin-7(8H)-yl)-5-methyl-1H-pyrazol-1-yl)-2-azaspiro[3.3]heptan-2-yl)prop-2-en-1-one] | 894 |
| C=CC(=O)N1CC2(CC(n3nc(N4CCn5ccnc5C4)c(-c4c(Cl)c(C)cc5[nH]ncc45)c3C)C2)C1 (single isomer, unassigned) [Example 19b, 1-(6-(4-(5-chloro-6-methyl-1H-indazol-4-yl)-3-(5,6-dihydroimidazo[1,2-a]pyrazin-7(8H)-yl)-5-methyl-1H-pyrazol-1-yl)-2-azaspiro[3.3]heptan-2-yl)prop-2-en-1-one] | 34700 |
| C=CC(=O)N1CC2(CC(n3nc(N4CCN(C(C)=O)C5(CCC5)C4)c(-c4c(Cl)c(C)cc5[nH]ncc45)c3C)C2)C1 (single isomer, unassigned) [Example 20a, 1-(6-(3-(5-acetyl-5,8-diazaspiro[3.5]nonan-8-yl)-4-(5-chloro-6-methyl-1H-indazol-4-yl)-5-methyl-1H-pyrazol-1-yl)-2-azaspiro[3.3]heptan-2-yl)prop-2-en-1-one] | 301 |
